From ChEMBL document CHEMBL1649181 (2009)
In brackets after ≈: the same amount, converted by molar mass.

Experiments:
Assay type in all cases: functional
[1] = test system: Mycobacterium tuberculosis; assay: Antimicrobial activity against Mycobacterium tuberculosis harboring 261V to G mutation in thymidylate synthase A by agar dilution method
[2] = test system: Mycobacterium tuberculosis; assay: Antimicrobial activity against Mycobacterium tuberculosis harboring 251Y to Stop mutation in thymidylate synthase A by agar dilution method
[3] = test system: Mycobacterium tuberculosis; assay: Antimicrobial activity against Mycobacterium tuberculosis harboring 259A to P mutation in thymidylate synthase A by agar dilution method
[4] = test system: Mycobacterium tuberculosis; assay: Antimicrobial activity against Mycobacterium tuberculosis harboring 191Q to R mutation in thymidylate synthase A by agar dilution method
[5] = test system: Mycobacterium tuberculosis; assay: Antimicrobial activity against Mycobacterium tuberculosis harboring 183L to V mutation in thymidylate synthase A by agar dilution method
[6] = test system: Mycobacterium tuberculosis; assay: Antimicrobial activity against Mycobacterium tuberculosis harboring 153Y to Stop mutation in thymidylate synthase A by agar dilution method
[7] = test system: Mycobacterium tuberculosis; assay: Antimicrobial activity against Mycobacterium tuberculosis harboring 202T to A mutation in thymidylate synthase A by agar dilution method
[8] = test system: Mycobacterium tuberculosis; assay: Antimicrobial activity against Mycobacterium tuberculosis harboring 164Y to Stop mutation in thymidylate synthase A by agar dilution method
[9] = test system: Mycobacterium tuberculosis; assay: Antimicrobial activity against Mycobacterium tuberculosis harboring 264Stop to R mutation in thymidylate synthase A by agar dilution method
[10] = test system: Mycobacterium tuberculosis; assay: Antimicrobial activity against Mycobacterium tuberculosis harboring 143L to P mutation in thymidylate synthase A by agar dilution method
[11] = test system: Mycobacterium tuberculosis; assay: Antimicrobial activity against Mycobacterium tuberculosis harboring 83W to Stop mutation in thymidylate synthase A by agar dilution method
[12] = test system: Mycobacterium tuberculosis; assay: Antimicrobial activity against Mycobacterium tuberculosis harboring 172L to P mutation in thymidylate synthase A by agar dilution method
[13] = test system: Mycobacterium tuberculosis; assay: Antimicrobial activity against Mycobacterium tuberculosis harboring 118L to Stop mutation in thymidylate synthase A by agar dilution method
[14] = test system: Mycobacterium tuberculosis; assay: Antimicrobial activity against Mycobacterium tuberculosis harboring 182A to P mutation in thymidylate synthase A by agar dilution method
[15] = test system: Mycobacterium tuberculosis; assay: Antimicrobial activity against Mycobacterium tuberculosis harboring 146C to R mutation in thymidylate synthase A by agar dilution method
[16] = test system: Mycobacterium tuberculosis; assay: Antimicrobial activity against Mycobacterium tuberculosis harboring 127R to L mutation in thymidylate synthase A by agar dilution method
[17] = test system: Mycobacterium tuberculosis; assay: Antimicrobial activity against Mycobacterium tuberculosis harboring 15G to R mutation in thymidylate synthase A by agar dilution method
[18] = test system: Mycobacterium tuberculosis; assay: Antimicrobial activity against Mycobacterium tuberculosis harboring 11Q to Stop mutation in thymidylate synthase A by agar dilution method

In the case of `Nc1ccc(C(=O)O)c(O)c1` [AMINOSALICYLIC ACID], the MIC [1] is reported as >128 µg/mL, the MIC [2] is reported as >128 µg/mL and the MIC [3] is reported as 64 µg/mL (≈ 418 µM). For the same compound, the MIC [4] was <64 µg/mL, the MIC [5] was <64 µg/mL and the MIC [6] was >128 µg/mL. For the same compound, the MIC [7] was <128 µg/mL, the MIC [8] was >128 µg/mL and the MIC [9] was >128 µg/mL. The MIC [10] was >128 µg/mL, the MIC [11] was >128 µg/mL and the MIC [12] was >128 µg/mL. The MIC [13] was >128 µg/mL, the MIC [14] was >128 µg/mL and the MIC [15] was >128 µg/mL. For the same compound, the MIC [16] was >128 µg/mL, the MIC [17] was >8 µg/mL and the MIC [18] was >128 µg/mL.
